Laboratory results from US11000501B2, “Composition for preventing or treating neurological and mental disorders, containing syringaresinol” (SEOUL NATIONAL UNIVERSITY R&DB FOUNDATION, priority 2016, dated 2021).

Columns and labels:
[1] = tested on: Schaffer collateral (SC)-CA1 synapse of the hippocampus; assay: fEPSP recording in hippocampal SC-CA1 synapse (hippocampal slices); assay type: cell-based, mouse; settings: for first and second fEPSPs: paired pulse interval 100 ms
Protocol: A hippocampus slice (400 μm thick) was prepared in a cold dissection buffer using a vibrating machine (Vibratome, Leica, Germany) and then a CA3 region of each slice was removed surgically immediately after the slice formation. In this connection, the cold dissection buffer contained sucrose 230 mM; NaHCO3 25 mM; KCl 2.5 mM; NaH2PO4 1.25 mM; D-glucose 10 mM; Na-ascorbic acid salt 1.3 mM; MgCl2 3 mM; CaCl2 0.5 mM, 95% O2/5% CO2 and had pH 7.4. The slice was recovered in a normal ACSF (artificial cerebrospinal fluid) for 1 hour and then maintained at room temperature (23 to 25° C.) until recording. […] All electrophysiological experiments were performed in a recording chamber while the samples were immersed in the solution in a manner described previously (Song et al., 2017). Signals were amplified using a MultiClamp 700B amplifier (Molecular Devices, CA, USA) at a cut-off frequency of 2.8 kHz and were measured with a Digidata 1440A interface (Molecular Devices) at a 10 kHz sampling frequency. Data were collected using pClamp 10.2 (Molecular Devices) software. The collected data were analyzed with a program created in the lab using Igor Pro (WaveMetrics, OR, USA). To record the field excitatory post-synaptic potential (fEPSP) in the hippocampal SC-CA1 synapse, hippocampal slices were placed in the recording chamber and perfused with ACSF while oxygen was fed continuously to the ACSF. The ACSF was maintained at a temperature of 29 to 30° C. using a heater for perfusion (SH-27B, Warner Instruments, CT, USA). A synapse response was induced by stimulation with a glass pipette (0.3 to 0.5 Mohm) every 20 seconds (0.05 Hz). The synapse response was recorded using a glass pipette (3 to 4 Mohm) filled with ACSF. The intensity of the stimulus was adjusted to produce a synapse response of about ⅓ of the maximum value thereof. The slices with unstable (10%) baseline records were excluded. To investigate the effect of syringaresinol (SYR) on the synaptic transmission, the field excitatory post-synaptic potential (fEPSP) of the Schaffer collateral (SC)-CA1 synapse of the hippocampus of adult mice (4 to 6 weeks of age) was measured. After confirming the stable baseline, different concentrations of SYR were applied thereto using the perfusion solution.

ERK = assay: Western blot of ERK activity (p-ERK/ERK) in hippocampal slices; assay type: cell-based, mouse; settings: 100, 300 and 500 μM, 10 minutes treatment
Protocol: After removing the CA3 region from the hippocampal slice surgically, the slices were recovered in the 36° C. and normal ACSF for 4 hours. Each sample was treated with each drug for 10 minutes, and then frozen using liquefied nitrogen. Western blot analysis of drug-induced changes in ERK activity in the hippocampal slices was performed in a manner as previously described (Song et al., 2017). The slices were homogenized using a probe sonicator in a cold lysis buffer about at a temperature of ice. The lysis buffer contained 50 mM HEPES, 100 mM NaCl, 5 mM EGTA, 5 mM EDTA, 1% Triton X-100, a phosphatase inhibitor mixer (GenDEPOT, TX, USA) and a protease inhibitor mixer (Sigma-Aldrich, MO, USA). The total protein concentration of the homogenate was determined by Bradford protein assay (Bio-Rad, CA, USA). Samples containing 10 to 12 μg of protein were separated using SDS-PAGE gels and transferred to the nitrocellulose membrane. The membrane was sequentially reacted with a primary antibody (p-ERK and ERK; Cell Signaling Technologies, MA, USA) and a secondary antibody (Jackson ImmunoResearch, USA) having horse radish peroxidase (HRP) coupled thereto. HRP signals were detected on an enhanced chemiluminescence (ECL) substrate (GE Healthcare, UK) and then quantified with MetaMorph software (Molecular Devices, CA, USA). […]

[2] = tested on: NMDAR-EPSC in CA1 neurons; assay: NMDAR-mediated EPSC recording in CA1 neurons; assay type: cell-based, mouse; settings: −40 mV; NBQX and picrotoxin present; 100-ms interval
Protocol: To measure evoked excitatory post-synaptic current (eEPSC), the synapse potential was recorded using a patch pipette (3 to 4Mohm) via the membrane voltage clamp technique. The patch pipette contained a solution containing 100 mM CsMeSO4, 10 mM TEA-Cl, 20 mM CsCl, 8 mM NaCl, 10 mM HEPES, 0.5 mM QX-314-Cl, 4 mM Mg-ATP, 0.3 mM Na-GTP and 10 mM EGTA and having pH 7.25 and 290 mOsm/kg. EPSC was measured at a frequency of 0.05 Hz. The synaptic current was induced using a glass pipette (0.3 to 0.5 Mohm). GABAA receptor (GABAAR) antagonist picrotoxin (50 μM) was added to ACSF.

Open field test = assay type: in vivo, mouse; settings: 10 mg/kg intraperitoneally, test 30 minutes after injection, 30-minute test
Protocol: All experiments were performed using male and female C57BL/6 mice of 4 to 6 weeks of age. An open field test was performed on male mice of 6 to 7 weeks. Animals were maintained with circulating 12/12-h day/night, while daytime starts at 07:00. Three or five animals were housed per one cage. Free available food and water were fed to the mice under specific pathogenic-microorganism free (SPF) conditions. The animal maintenance protocol and all experimental procedures were approved by the Institutional Animal Care and Use Committee (IACUC) of Seoul National University.
In an open field test, we video-recorded a movement of a 7 to 10-week-old mouse in a white plastic chamber (40×40×40 cm) in a darkened room for 30 minutes. Then, the moving distance of the mouse was measured using Ethovision XT (Noldus) software.
To determine the change of the activity of the mice by syringaresinol, we injected syringaresinol at a concentration of 10 mg/kg intraperitoneally into the mice. After 30 minutes, we measured the activity of the mice via an open field test. In this connection, control was injected with DMSO, a solvent used for dissolving syringaresinol. The open field test was conducted for 30 minutes. The activity of the mouse was checked at a 5-minute interval. Further, during the 30-minute test, the total movement distance of the mouse was measured.

## COc1cc(C2OCC3C(c4cc(OC)c(O)c(OC)c4)OCC23)cc(OC)c1O (centres unmarked) [SYR, syringaresinol]
[1]; 30 μM and 100 μM, interval 100 ms
  paired-pulse ratio (PPR) of fEPSP: gradually increased
[1]; 30 μM
  first and second fEPSPs: significantly decreased
[1]; 100 μM, 1 h
  amplitude of fEPSP during SYR perfusion (1 h): rapidly decreased and then remained stable
[1]; 100 μM, interval 200 ms
  PPR before vs one hour after application, small inter-pulse interval: significant difference in PPR
[1]; 100 μM, interval 500 ms
  PPR before vs one hour after application, large inter-pulse interval: no difference in PPR
[1]; 100 μM
  first and second fEPSPs: significantly decreased
[1]; Mus musculus, 500 μM of SYR, read-out: maximum inhibition of fEPSP
  inhibition at 500 µM: 75.9 ± 1.6%
[1]; Mus musculus, SC-CA1 synapse, hippocampal slice, bath perfusion, read-out: IC50 for decrease of slope and amplitude of fEPSP
  IC50: 90 µM
[1]; high concentrations, >10 μM
  post-synaptic response (fEPSP): decreased rapidly
[1]; low concentrations, 1 to 5 μM
  effect on fEPSP: did not affect fEPSP
[1]; washout
  PPR and fEPSP after washing the SYR with control solution: slowly recovered to baseline
ERK
  ERK activity: did not affect ERK activity
[2]
  NMDAR-EPSC induced by paired-pulse stimulation: significantly inhibited
Open field test
  activity of the mouse as fraction of control (movement distance): ¼
